Results taken from patent US8410302B2, “Methoxyimino compounds and fungicide composition comprising same” (Kyung Nong Corporation, priority 2007, dated 2013).
Read-outs that look alike come from different tables or passages of the source.

Assays:
Erysiphae graminis = test: Fungicidal activity against barley powdery mildew (BPM) disease, control value; assay type: in vivo; conditions: for pest or weed control at 2 ppm / pest or weed control at 10 ppm / pest or weed control at 50 ppm / pest or weed control at 100 ppm: 168 h, read-out: BPM control value (C.V.)
Phytophthora infestans = test: whole plant or invertebrate; assay type: in vivo; conditions: for pest or weed control at 100 ppm / pest or weed control at 2 ppm / pest or weed control at 10 ppm / pest or weed control at 50 ppm: Phytophthora infestans, in Solanum lycopersicum, read-out: TLB control value (C.V.); for TLB control value (C.V.): tomato late blight
Puccinia recondita = test: Fungicidal activity against wheat leaf rust (WLR) disease, control value; assay type: in vivo; conditions: for pest or weed control at 2 ppm / pest or weed control at 10 ppm / pest or weed control at 50 ppm / pest or weed control at 100 ppm: read-out: WLR control value (C.V.)
Botrytis cinerae = test: Fungicidal activity against cucumber gray mold rot (CGM) disease, control value; assay type: in vivo; conditions: for pest or weed control at 100 ppm / CGM control value (C.V.): 100 ppm
Experimental: Botrytis cinerae, which was isolated from cucumber infected thereby, was inoculated on a potato agar medium (PEC) and cultured under a 12L/12D cycle at 25° C. for 15 days to form spore. The spores were scraped, filtered through a gauze and then suspended in Potato Dextrose broth at a concentration of 1×10^6 spore/ml. The spore suspension was sprayed on a cucumber plant having one leaf. The cucumber plant was held in a humidified room at 20° C. for 3 days. L.A. on a leaf was measured to calculate a C.V.

[1] = test system: Pyricularia oryzae Carvara KA301; test: whole plant or invertebrate; assay type: in vivo; conditions: for pest or weed control at 2 ppm / pest or weed control at 10 ppm / pest or weed control at 50 ppm / pest or weed control at 100 ppm: Pyricularia oryzae, read-out: RCB control value (C.V.); for RCB control value (C.V.): rice blast
Rhizoctonia solani AG-1 = test: Fungicidal activity against rice sheath blight (RSB) disease, control value; conditions: for pest or weed control at 2 ppm / pest or weed control at 10 ppm / pest or weed control at 50 ppm / pest or weed control at 100 ppm: Rhizoctonia solani, AG1, in Oryza sativa, read-out: RSB control value (C.V.); for RSB control value (C.V.): 100 ppm, rice sheath blight
[2] = Hordeum vulgare, 2 ppm, barley powdery mildew
[3] = Hordeum vulgare, 10 ppm, barley powdery mildew
[4] = Hordeum vulgare, 50 ppm, barley powdery mildew
[5] = Hordeum vulgare, 100 ppm, barley powdery mildew
[6] = Botrytis, cucumber gray mold rot, read-out: CGM control value (C.V.)
[7] = Botrytis, read-out: CGM control value (C.V.)

Compound	pest or weed control at 2 ppm (Erysiphae graminis; [2]) [%]	pest or weed control at 10 ppm (Erysiphae graminis; [3]) [%]	pest or weed control at 50 ppm (Erysiphae graminis; [4]) [%]	pest or weed control at 100 ppm (Erysiphae graminis; [5]) [%]	pest or weed control at 100 ppm (Phytophthora infestans) [%]	pest or weed control at 2 ppm (Puccinia recondita; 2 ppm, wheat leaf rust) [%]	pest or weed control at 10 ppm (Puccinia recondita; 10 ppm, wheat leaf rust) [%]	pest or weed control at 50 ppm (Puccinia recondita; 50 ppm, wheat leaf rust) [%]	pest or weed control at 100 ppm (Puccinia recondita; 100 ppm, wheat leaf rust) [%]	pest or weed control at 2 ppm [1] [%]	pest or weed control at 10 ppm [1] [%]	pest or weed control at 50 ppm [1] [%]	pest or weed control at 100 ppm [1] [%]	pest or weed control at 2 ppm (Rhizoctonia solani AG-1) [%]	pest or weed control at 10 ppm (Rhizoctonia solani AG-1) [%]	pest or weed control at 50 ppm (Rhizoctonia solani AG-1) [%]	pest or weed control at 100 ppm (Rhizoctonia solani AG-1) [%]	pest or weed control at 2 ppm (Phytophthora infestans) [%]	pest or weed control at 10 ppm (Phytophthora infestans) [%]	pest or weed control at 50 ppm (Phytophthora infestans) [%]	other results
CNC(=O)/C(=N/OC)c1ccccc1COc1cccc(C=C(Br)Br)c1 [Example 6, (E)-2-(2-((3-(2,2-dibromovinyl)phenoxy)methyl)phenyl)-2-methoxyimino-N-methylacetamide]	0	30	90	97	50	0	35	95	98	98	100	100	100	30	90	100	100	–	–	–	pest or weed control at 100 ppm (Botrytis cinerae; [6]): 60%
CO/N=C(/C(=O)OC)c1ccccc1COc1ccc(C=C(Cl)Cl)c(Cl)c1 [Example 57, methyl-(E)-2-(2-((3-chloro-4-(2,2-dichlorovinyl)phenoxy)methyl)phenyl)-2-methoxyiminoacetate]	–	–	–	–	100	–	–	–	–	90	100	100	100	90	100	100	100	99	100	100	pest or weed control at 2 ppm (Erysiphae graminis; 2 ppm): 100%; pest or weed control at 10 ppm (Erysiphae graminis; 10 ppm): 100%; pest or weed control at 50 ppm (Erysiphae graminis; 50 ppm): 100%; pest or weed control at 100 ppm (Erysiphae graminis; 100 ppm): 100%; pest or weed control at 2 ppm (Puccinia recondita; Puccinia recondita, 2 ppm): 95%; pest or weed control at 10 ppm (Puccinia recondita; Puccinia recondita, 10 ppm): 100%; pest or weed control at 50 ppm (Puccinia recondita; Puccinia recondita, 50 ppm): 100%; pest or weed control at 100 ppm (Puccinia recondita; Puccinia recondita, 100 ppm): 100%; pest or weed control at 50 ppm (Botrytis cinerae; Botrytis, 50 ppm, read-out: CGM control value (C.V.)): 20%; pest or weed control at 100 ppm (Botrytis cinerae; [7]): 75%
CO/N=C(/C(=O)OC)c1ccccc1CON=C(C)c1ccc(C=C(Cl)Br)cc1 [Example 37, methyl-(E)-2-[[[[[2-[4-(2-bromo-2-chlorovinyl)phenyl](1-methyl)methylidene]amino]oxy]methyl]phenyl]-2-methoxyiminoacetate]	–	–	–	–	–	–	–	–	–	–	–	–	–	–	–	–	–	–	–	–	BPM control value (C.V.) (Erysiphae graminis; 2 ppm, barley powdery mildew): 35%; BPM control value (C.V.) (Erysiphae graminis; 10 ppm, barley powdery mildew): 90%; BPM control value (C.V.) (Erysiphae graminis; 50 ppm, barley powdery mildew): 93%; BPM control value (C.V.) (Erysiphae graminis; 100 ppm, barley powdery mildew): 95%; TLB control value (C.V.) (Phytophthora infestans; 10 ppm): 10%; TLB control value (C.V.) (Phytophthora infestans; 50 ppm): 90%; TLB control value (C.V.) (Phytophthora infestans; 100 ppm): 100%; WLR control value (C.V.) (Puccinia recondita; 2 ppm, wheat leaf rust): 100%; WLR control value (C.V.) (Puccinia recondita; 10 ppm, wheat leaf rust): 100%; WLR control value (C.V.) (Puccinia recondita; 50 ppm, wheat leaf rust): 100%; WLR control value (C.V.) (Puccinia recondita; 100 ppm, wheat leaf rust): 100%; CGM control value (C.V.) (Botrytis cinerae; cucumber gray mold rot): 50%; RCB control value (C.V.) ([1]; 2 ppm): 75%; RCB control value (C.V.) ([1]; 10 ppm): 90%; RCB control value (C.V.) ([1]; 50 ppm): 100%; RCB control value (C.V.) ([1]; 100 ppm): 100%; RSB control value (C.V.) (Rhizoctonia solani AG-1): 90%
CO/N=C(/C(=O)OC)c1ccccc1COc1ccc(C=C(Br)Br)cc1C [Example 65, methyl-(E)-2-(2-((4-(2,2-dibromovinyl)-2-methylphenoxy)methyl)phenyl)-2-methoxyiminoacetate]	–	–	–	–	100	–	–	–	–	100	100	100	100	97	100	100	100	50	80	100	pest or weed control at 2 ppm (Erysiphae graminis; 2 ppm): 60%; pest or weed control at 10 ppm (Erysiphae graminis; 10 ppm): 95%; pest or weed control at 50 ppm (Erysiphae graminis; 50 ppm): 100%; pest or weed control at 100 ppm (Erysiphae graminis; 100 ppm): 100%; pest or weed control at 2 ppm (Puccinia recondita; Puccinia recondita, 2 ppm): 100%; pest or weed control at 10 ppm (Puccinia recondita; Puccinia recondita, 10 ppm): 100%; pest or weed control at 50 ppm (Puccinia recondita; Puccinia recondita, 50 ppm): 100%; pest or weed control at 100 ppm (Puccinia recondita; Puccinia recondita, 100 ppm): 100%; pest or weed control at 100 ppm (Botrytis cinerae; [7]): 35%
CO/N=C(/C(=O)OC)c1ccccc1COc1ccc(C=C(F)F)cc1 [Example 9, methyl-(E)-2-(2-((4-(2,2-difluorovinyl)phenoxy)methyl)phenyl)-2-methoxyiminoacetate]	15	60	93	100	100	100	100	100	100	100	100	100	100	–	–	–	10	100	100	100	pest or weed control at 100 ppm (Botrytis cinerae; [6]): 50%
CNC(=O)/C(=N/OC)c1ccccc1COc1ccc(C=C(Br)Br)cc1 [Example 8, (E)-2-(2-((4-(2,2-dibromovinyl)phenoxy)methyl)phenyl)-2-methoxyimino-N-methylacetamide]	99	100	100	100	100	90	90	98	100	90	97	100	100	–	–	–	32	98	100	100	pest or weed control at 100 ppm (Botrytis cinerae; [6]): 7%
CNC(=O)/C(=N/OC)c1ccccc1COc1ccc(C=C(Br)Br)cc1C [Example 66, (E)-2-(2-((4-(2,2-dibromovinyl)-2-methylphenoxy)methyl)phenyl)-2-methoxyimino-N-methylacetamide]	–	–	–	–	100	–	–	–	–	60	90	100	100	65	98	100	100	75	90	98	pest or weed control at 2 ppm (Erysiphae graminis; 2 ppm): 97%; pest or weed control at 10 ppm (Erysiphae graminis; 10 ppm): 100%; pest or weed control at 50 ppm (Erysiphae graminis; 50 ppm): 100%; pest or weed control at 100 ppm (Erysiphae graminis; 100 ppm): 100%; pest or weed control at 2 ppm (Puccinia recondita; Puccinia recondita, 2 ppm): 95%; pest or weed control at 10 ppm (Puccinia recondita; Puccinia recondita, 10 ppm): 100%; pest or weed control at 50 ppm (Puccinia recondita; Puccinia recondita, 50 ppm): 100%; pest or weed control at 100 ppm (Puccinia recondita; Puccinia recondita, 100 ppm): 100%; pest or weed control at 100 ppm (Botrytis cinerae; [7]): 45%
CNC(=O)/C(=N/OC)c1ccccc1CON=C(C)c1ccc(C=C(Br)Br)cc1 [Example 26, (E)-2-[[[[[2-[4-(2,2-dibromovinyl)phenyl](1-methyl)methylidene]amino]oxy]methyl]phenyl]-2-methoxyimino-N-methylacetamide]	–	–	–	–	–	–	–	–	–	–	–	–	–	–	–	–	–	–	–	–	BPM control value (C.V.) (Erysiphae graminis; 2 ppm, barley powdery mildew): 99%; BPM control value (C.V.) (Erysiphae graminis; 10 ppm, barley powdery mildew): 100%; BPM control value (C.V.) (Erysiphae graminis; 50 ppm, barley powdery mildew): 100%; BPM control value (C.V.) (Erysiphae graminis; 100 ppm, barley powdery mildew): 100%; TLB control value (C.V.) (Phytophthora infestans; 2 ppm): 98%; TLB control value (C.V.) (Phytophthora infestans; 10 ppm): 100%; TLB control value (C.V.) (Phytophthora infestans; 50 ppm): 100%; TLB control value (C.V.) (Phytophthora infestans; 100 ppm): 100%; WLR control value (C.V.) (Puccinia recondita; 2 ppm, wheat leaf rust): 90%; WLR control value (C.V.) (Puccinia recondita; 10 ppm, wheat leaf rust): 90%; WLR control value (C.V.) (Puccinia recondita; 50 ppm, wheat leaf rust): 98%; WLR control value (C.V.) (Puccinia recondita; 100 ppm, wheat leaf rust): 100%; CGM control value (C.V.) (Botrytis cinerae; cucumber gray mold rot): 7%; RCB control value (C.V.) ([1]; 2 ppm): 90%; RCB control value (C.V.) ([1]; 10 ppm): 97%; RCB control value (C.V.) ([1]; 50 ppm): 100%; RCB control value (C.V.) ([1]; 100 ppm): 100%; RSB control value (C.V.) (Rhizoctonia solani AG-1): 32%
